Here are results for 14 molecules from ChEMBL document CHEMBL3627668, “Structure-activity relationships of furazano[3,4-b]pyrazines as mitochondrial uncouplers” (Bioorg Med Chem Lett, 2015).

The subject of assay [1] is L6. The assay is described as follows: Induction of mitochondrial uncoupling in rat L6 cells assessed as stimulation of cellular oxygen consumption. It is filed as functional, cell-based.
Assay [2] relates to L6. The assay is described as follows: Induction of mitochondrial uncoupling in rat L6 cells assessed as stimulation of cellular oxygen consumption relative to control. It is filed as functional.
Setting [3] is: Rattus norvegicus, L6, read-out: EC50.

Usually EC50 stands for the concentration at which the effect is half-maximal. Take `Fc1cccc(Nc2nc3nonc3nc2Nc2cccc(F)c2)c1`: the EC50 in assay [1] (setting [3]) was 180 nM. Further, the “%max” value in assay [2] is given as 220.8%.

Regarding `CCONc1nc2nonc2nc1NOCC`, the EC50 entry in assay [1] (l6) is “ND(Insoluble)”. In addition, in assay [2], the “%max” value was 100%.

For `CCCNc1nc2nonc2nc1NCCC`, the EC50 result in assay [1] (l6) is recorded as “ND(Insoluble)”. In addition, the “%max” value in assay [2] turned out to be 98%.

As for `CCCCNc1nc2nonc2nc1NCCCC`, the EC50 entry in assay [1] (l6) was “ND(Insoluble)”. Besides, the “%max” value in assay [2] is given as 116%.

With `CCCCCCNc1nc2nonc2nc1NCCCCCC`, the EC50 result in assay [1] (l6) is given as “ND(Insoluble)”. In addition, the “%max” value in assay [2] turned out to be 160.2%.

With `FC(F)(F)CONc1nc2nonc2nc1NOCC(F)(F)F`, the concentration for a half-maximal effect (EC50) result in assay [1] (l6) is reported as “ND(Insoluble)”. Further, in assay [2], the “%max” value turned out to be 96.3%.

For `c1ccc(Nc2nc3nonc3nc2Nc2ccccc2)cc1`, in assay [1] (l6), the EC50 result is recorded as “ND(Insoluble)”. The “%max” value in assay [2] was 172.8%.

In the case of `Fc1ccc(Nc2nc3nonc3nc2Nc2ccc(F)cc2)cc1`, in assay [1] (setting [3]), the 50% effective concentration (EC50) was determined as 460 nM. Moreover, the “%max” value in assay [2] is given as 204%.

With `Fc1ccc(Nc2nc3nonc3nc2Nc2ccc(F)cc2F)c(F)c1`, the 50% effective concentration (EC50) in assay [1] (setting [3]) was 40 nM. Also, the “%max” value in assay [2] turned out to be 222.6%.

As to `Clc1ccc(Nc2nc3nonc3nc2Nc2ccc(Cl)cc2)cc1`, the EC50 in assay [1] (setting [3]) came out at 270 nM. The “%max” value in assay [2] was found to be 190.4%.

Regarding `c1ccc(Nc2nc3nonc3nc2Nc2ccccn2)nc1`, in assay [1] (l6), the EC50 result is recorded as “ND(Insoluble)”.

Turning to `c1ccc(Oc2nc3nonc3nc2Oc2ccccc2)cc1`, the EC50 entry in assay [1] (l6) is reported as “ND(Insoluble)”. Besides, the “%max” value in assay [2] amounted to 98.3%.

Take `Fc1ccccc1Oc1nc2nonc2nc1Oc1ccccc1F`: the EC50 result in assay [1] (l6) is listed as “ND(Insoluble)”. In addition, the “%max” value in assay [2] was 93%.

On to `Ic1ccccc1Oc1nc2nonc2nc1Oc1ccccc1I`, for which the concentration giving a half-maximal response (EC50) entry in assay [1] (l6) is given as “ND(Insoluble)”. Besides, the “%max” value in assay [2] was determined as 98.8%.
